Patent EP0358766A1, “METHOD OF STERILIZING PLANT ANTHERS” (VSESOJUZNY NAUCHNO-ISSLEDOVATELSKY INST. SELSKOKHOZYAISTV. …, priority 1988, dated 1989)

What was measured:
[1] = test system: Winterweizens Sorte Mironowskaya 808; assay: Field test of gametocidal activity (anther sterilisation), winter wheat Mironowskaya 808; type: in vivo, Weizen; details: Mironowskaya 808, period V of organogenesis, 2% aqueous emulsion, 20 kg/ha in 1000 l water; for Prozentsatz des Ansetzens von Samen bei freier Bestäubung: control = 100
Description: (§1) Die gametozide Aktivität der erfindungsgemäßen Sterilisationsmittel war in Feldversuchen in verschiedenen bodenklimatischen Zonen mit Teilstücken von 10 m^2 Größe in dreibis viermaliger Wiederholung festgestellt. Jedes Sterilisationsmittel wurde mindenstens 5 Jahre lang geprüft.
(§2) Die Entwicklung der Perioden der Organogenese wird zytologisch überwacht. Die Behandlung von Pflanzen mit dem Sterilisationsmittel erfolgt am Anfang der fünften Periode der Organogenese nach Kupermann.
(§3) Mit dem Ährenschieben verwirklicht man die Isolierung von Hauptähren und anderen Stockwerken in Pergametbeuteln. Bei Weizen und Tritikale werden Einzelisolatoren benutzt. Bei Roggen schließt man je 1 Ähre von […] verschiedenen nebeneinander befindlichen Pflanzen unter einen gemeinsamen Isolator ein. Bei Hirse wird jede Rispe getrennt isoliert. Der Sterilitätsprozentsatz (X) für Weizen, Roggen, Tritikale und Hirse wird nach der Formel [formula] ermittelt.
(§4) Die Kornzahl in nicht isolierten Ähren von Kontrollpflanzen wird bedingt für 100 % Ansetzen bei freier Bestäubung angenommen.
(§5) Um zuverlässige Angaben zu erhalten, verwendet man 20 bis 25 Isolatoren je Wiederholung für Weizen und Tritikale, 10 bis 15 Isolatoren jeder Wiederholung für Roggen und Hirse.
Pflanzen des Winterweizens Sorte Mironowskaya 808 werden in der V.Periode der Organogenese durch Zerstäubung der 2%igen wäßrigen Emulsion von 1,1,3-Tribrompropan mit Hilfe einer Rückenspritze behandelt.
Als Emulgierungsmittel setzt man 0,5 Masse% C12-C14--Kalziumalkylbenzolsulphonat zu. Als Adjuvans enthält die Emulsion 0,01 Masse% Dimethylsulfoxid. Der Verbrauch an Präparat beträgt 20 kg/ha bei 1000 Liter Wasserdurchsatz. Als Kontrolle dienen Pflanzen, behandelt mit einem Verdünner ohne Sterilisationsmittel. Die Ergebnisse sind in der Tabelle 1 angegeben.
Der ProzeB wird analog zu dem in Beispiel 1 beschriebenen durchgeführt. Als Sterilisationsmittel verwendet man eine 2%ige waßrige Emulsion von 1,1,3-Tribrom-4-chlorbutan, 1,1,2,3-Tetrabrompropan. Die Prüfergebnisse sind in der Tabelle 1 angegeben.
Der Prozeß wird analog zu dem in Beispiel 1 beschriebenen durchgeführt, nur daß man 1%ige wäßrige Emulsion von 1,2,3-Tribrompropan, 1,2-Dibrompropan, 1,1,3-Tribrom-3--chlorpropan, 1,2-Dibrom-3-chlorpropan, 1,3-Dibrompropan, 1,1,1,3-Tetrabromheptan, 1,1,3-Tribromheptan, 1,2-Dibromheptan verwendet. Die Präparatdosis beträgt 10 kg ha. Die Prüfergebnisse sind in der Tabelle 1 angegeben. Die gleichen Ergebnisse sind bei der Behandlung des Weizens Sorte Mironowskaya 808 in der VI. Periode der Organogenese erhalten.

[2] = test system: Sommerweizens Sorte Moskowskaya 35; assay: Field test of gametocidal activity, spring wheat Moskowskaya 35; type: in vivo, Weizen; details: for Kornzahl der Ähre bei freier Bestäubung / Kornzahl der Ähre im Isolator / Prozentsatz des Ansetzens von Samen bei freier Bestäubung: Moskowskaya 35, period V, 1% aqueous emulsion, 6 kg/ha in 600 l water; for Prozentsatz des Ansetzens von Samen bei freier Bestäubung: control = 100; for pest or weed control at 6000 g/ha: read-out: Prozentsatz der Sterilität
Description: as §1, §2, §3, §4, §5
Pflanzen des Sommerweizens Sorte Moskowskaya 35 werden in der V. Periode der Organogenese (nach Kupermann) mit einer l%igen wäßrigen Emulsion von 1,1,3-Tribrompropan, […], 1,1,2,3-Tetrabrompropan, 1,2,3-Tribrompropan, 1,2-Dibrompropan, 1,1,3-Tribrom-3-chlorpropan, 1,2-Dibrom-3-chlorpropan, 1,3-Dibrompropan, 1,1,1,3-Tetrabromheptan bzw. 1,1,3-Tribromheptan behandelt. Die Emulsion enthält als Emulgierungsmittel 0,5 Masse% C12-C14-Kalzium- alkylbenzolsulfonat und als Adjuvans 0,01 Masse% Dimethylformamid. Der Verbrauch an Präparat beträgt 6 kg/ha bei 600 1 Wasserdurchsatz. Als Kontrolle dienen Pflanzen, behandelt mit dem Verdünner ohne Sterilisationsmittel.
Die Prüfergebnisse sind in der Tabelle 2 angegeben. Die gleichen Ergebnisse sind bei der Behandlung des Sommerweizens Sorte Moskowskaya 35 in der VI.Periode der Organogenese erhalten.

[3] = test system: tetraploidem Roggen Belta; assay: Field test of gametocidal activity, tetraploid rye Belta; type: in vivo; details: period V, 1% aqueous emulsion, 6 kg/ha in 600 l water; for Prozentsatz des Ansetzens von Samen bei freier Bestäubung: control = 100
Description: as §1, §2, §3, §4, §5
Pflanzen von tetraploidem Roggen Belta werden in der V.Periode der Organogenese (nach Kupermann) mit einer 1%igen wäßrigen Emulsion von 1,1,3-Tribrompropan, 1,1,3--Tribrom-4-chlorbutan, 1,1,2,3-Tetrabrompropan, 1,2,3-Tribrompropan, 1,1,3-Tribrom-3-chlorpropan bzw. 1,2-Dibrom--3-chlorpropan behandelt.
Die Emulsion enthält 0,5 Masse% C12-C14-Kalziumalk^yl-benzolsulfonat und 0,01 Masse% Dimethylsulfoxid. Der Verbrauch an Präparat beträgt 6 kg/ha bei 600 1 Wasserdurchsatz.Die Prüfergebnisse sind in der Tabelle 7 angegeben. Die gleichen Ergebnisse sind bei der Behandlung von tetraploidem Roggen Belta in der VI. Periode der Organogenese erhalten.

[4] = test system: diploidem Roggen Chulpan; assay: Field test of gametocidal activity, diploid rye Chulpan; type: in vivo; details: for Kornzahl der Ähre bei freier Bestäubung / Kornzahl der Ähre im Isolator / Prozentsatz des Ansetzens von Samen bei freier Bestäubung: Chulpan, period V, 1% aqueous emulsion, 10 kg/ha; for Prozentsatz des Ansetzens von Samen bei freier Bestäubung: control = 100; for pest or weed control at 10000 g/ha: read-out: Prozentsatz der Sterilität
Description: as §1, §2, §3, §4, §5
Pflanzen von diploidem Roggen Chulpan werden in der V.Periode der Organogenese mit einer 1%igen wäßrigen Emulsion von 1,1,3-Tribrompropan, 1,1,3-Tribrom-4-chlorbutan, 1,1,2,3-Tetrabrompropan, 1,2,3-Tribrompropan, 1,2-Dibrompropan, 1,1,3-Tribrom-3-ohlorpropan, 1,2-Dibrom-3--chlorpropan, 1,3-Dibrompropan, 1,1,1,3-Tetrabromheptan, 1,1,3-Tribromheptan bzw. 1,2-Dibromheptan behandelt. Die Emulsion enthält 0,5 Masse% C12-C14-Kalziumalkylbenzolsul- fonat und 0,01 Masse% Dimethylsulfoxid. Der Verbrauch an Präparat beträgt 10 kg/ha. Die Prüfergebnisse sind in der Tabelle 11 angegeben. Die gleichen Ergebnisse sind bei der Behandlung von diploidem Roggen Chulpan in der VI. Periode der Organogenese erhalten.

[5] = test system: diploidem Roggen Voskhod 2; assay: Field test of gametocidal activity, diploid rye Voskhod 2; type: in vivo; details: period V, 1% aqueous emulsion, 10 kg/ha in 1000 l water; for Prozentsatz des Ansetzens von Samen bei freier Bestäubung: control = 100
Description: as §1, §2, §3, §4, §5
Pflanzen von diploidem Roggen Voskhod 2 werden in der V. Periode der Organogenese mit einer 1%igen wäßrigen Emulsion von 1,1,3-Tribrompropan, 1,1,3-Tribrom-4-chlorbutan bzw. 1,1,2,3-Tetrabrompropan behandelt. Die Emulsion enthält 0,5 Masse% C12-C14-Kalziumalkylbenzolsulfonat und 0,01 Masse% Dimethylformamid. Der Verbrauch an Präparat beträgt 10 kg/ha bei 1000 1 Wasserdurchsatz. Die Prüfergebnisse sind in der Tabelle 14 angegeben. Die gleichen Ergebnisse sind bei der Behandlung von diploidem Roggen Voskhod 2 in der VI. Periode der Organogenese erhalten..

[6] = test system: Winterweizens Sorte Mironowskaya 808; assay: Field test of gametocidal activity (anther sterilisation), winter wheat Mironowskaya 808; type: in vivo, Weizen; details: read-out: Prozentsatz der Sterilität %

Compound	Kornzahl der Ähre bei freier Bestäubung [1]	Kornzahl der Ähre im Isolator [1]	Prozentsatz des Ansetzens von Samen bei freier Bestäubung [1]	Kornzahl der Ähre bei freier Bestäubung [2]	Kornzahl der Ähre im Isolator [2]	Prozentsatz des Ansetzens von Samen bei freier Bestäubung [2]	pest or weed control at 6000 g/ha [2]	Kornzahl der Ähre bei freier Bestäubung [3]	Kornzahl der Ähre im Isolator [3]	Prozentsatz der Sterilität [3]	Prozentsatz des Ansetzens von Samen bei freier Bestäubung [3]	Kornzahl der Ähre bei freier Bestäubung [4]	Kornzahl der Ähre im Isolator [4]	Prozentsatz des Ansetzens von Samen bei freier Bestäubung [4]	pest or weed control at 10000 g/ha [4]	Kornzahl der Ähre bei freier Bestäubung [5]	Kornzahl der Ähre unter Isolator [5]	Prozentsatz der Sterilität [5]	Prozentsatz des Ansetzens von Samen bei freier Bestäubung [5]	pest or weed control at 1 %, 20000 g/ha [6]
ClCC(Br)CC(Br)Br (stereo not shown) [Beispiel 2, 1,1,3-Tribrom-4-chlorbutan]	41,3	1,1	86,0%	36,5	0,6	95,5%	99.2%	42,6	0,8	98,0%	96,4%	47,8	1,0	95,4%	98%	52,4	1,0	97,2%	96,0%	97.3%
BrCC(Br)C(Br)Br (stereo not shown) [Beispiel 3, 1,1,2,3-Tetrabrompropan]	35,1	1,0	94,1%	31,8	0,3	83,2%	99.1%	40,1	0,6	98,5%	90,7%	44,3	0,4	88,4%	99.2%	45,7	0,2	99,6%	83,7%	97.3%
